Literature values, collected in PMC5526139 (Xenobiotica; the Fate of Foreign Compounds in Biological …, 2016).

Design: method as in Zhang et al., 2011
Conditions: ref Zhang et al., 2011

half-life in Phase 1 clinical trial (man): 0.7 h | predicted half-life in man (prediction before the clinical trial): 6 h
SMILES: CC(O)Cn1c(=O)c(Oc2ccc(F)cc2F)cc2cnc(NC(C)CO)nc21 (centres unmarked) [6-(2,4-difluorophenoxy)-2-[(1-hydroxypropan-2-yl)amino]-8-(2-hydroxypropyl)-7H,8H-pyrido[2,3-d]pyrimidin-7-one]
